The values below are quoted from earlier work in US20120237456A1, “ORAL COMPOSITIONS CONTAINING EXTRACTS OF GARCINIA MANGOSTANA L. AND RELATED METHODS” (Colgate-Palmolive Company, priority 2009, published 2012).

One data set has as its system cAMP phosphodiesterase. To be noted: reported by Chairungsrilerd and Takeuchi et al., 1996.
For data set [1] the following is noted: compared with BHA and a-tocopherol (vitamin E); Yoshikawa et al., 1994; Fan and Su, 1997.
The target in a further data set is COX 1 (Homo sapiens, UniProt P23219). Conditions: Nakatani et al., 2002 and 2004.
Sequence of COX 1 (P23219 24-599): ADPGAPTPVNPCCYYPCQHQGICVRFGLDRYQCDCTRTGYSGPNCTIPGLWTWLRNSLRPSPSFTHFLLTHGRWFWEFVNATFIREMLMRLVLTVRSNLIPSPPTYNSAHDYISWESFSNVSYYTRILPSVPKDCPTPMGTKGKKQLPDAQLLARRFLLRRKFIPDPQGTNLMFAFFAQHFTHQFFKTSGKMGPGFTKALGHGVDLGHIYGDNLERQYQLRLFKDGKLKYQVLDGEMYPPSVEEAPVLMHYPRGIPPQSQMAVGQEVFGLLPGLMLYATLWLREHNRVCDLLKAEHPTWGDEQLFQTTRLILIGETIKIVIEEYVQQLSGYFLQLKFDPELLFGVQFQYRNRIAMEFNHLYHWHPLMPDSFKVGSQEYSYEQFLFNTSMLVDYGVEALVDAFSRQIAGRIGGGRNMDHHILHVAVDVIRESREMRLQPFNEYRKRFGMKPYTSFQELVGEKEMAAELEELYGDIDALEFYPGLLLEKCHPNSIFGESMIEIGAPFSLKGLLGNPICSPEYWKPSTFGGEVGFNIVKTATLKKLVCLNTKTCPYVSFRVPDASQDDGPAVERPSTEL
The next data set relates to DNA topoisomerase. Conditions: Tosa et al., 1997.
A further data set relates to serotonin receptors. Conditions: Chairungsrilerd, Furukawa et al., 1996 and 1998.

Each structure is given as a SMILES string.

`COc1c(O)cc2oc3cc4c(c(O)c3c(=O)c2c1CC=C(C)C)CC(O)C(C)(C)O4` (centres unmarked) [Mangostanol]: the “inhibition of cAMP phosphodiesterase” value in the data set with cAMP phosphodiesterase is on record as “strong inhibition”.
`CC(C)=CCc1c(O)cc2oc3cc(O)c(O)c(CC=C(C)C)c3c(=O)c2c1O` [γ-mangostin]: in data set [1], the antioxidative activity result is listed as “more potent antioxidative activity than BHA”. The “inhibition of the activity of cyclooxygenase COX 1” value at COX 1 is “directly inhibit”. The “inhibition of DNA topoisomerase” value in the data set on DNA topoisomerase is listed as “inhibit”. Further, the “antagonism of serotonin receptors” value with serotonin receptors is listed as “antagonist”.
